Assay: Two-photon absorption cross-sectional area, Z scan method, Examples B
Assay type: physicochemical
Details: tetrahydrofuran solution, femtosecond laser, 780 nm to 960 nm (710 nm to 990 nm)
Protocol: Each of Compounds (1), (2), (57), (58), (59), (60), (3), (4), (61), (62), (25), (26), (63), (64), (65), (66), (45), (67), (68), (69), (70), (71), (72), (5), (9), (13), (19), (27), (31), (32), (34), (36), (39), (44), (53) and (55) was dissolved in tetrahydrofuran, and the resultant tetrahydrofuran solution was measured for its two-photon absorption cross-sectional area according to the below-described evaluation method therefor.
This measurement was performed under the following conditions:
Sample concentration: 10^−2 mol to 10^−5 mol (this range covering optimal concentrations of the samples (at which measurements are easily performed));
Light path length of cell: 10 mm (corresponding to the inner diameter of cuvette);
Light: variable femtosecond laser having a wavelength of 710 nm to 990 nm; and
Light power: 10 mW to 800 mW.
The following compound (73) was dissolved in tetrahydrofuran, and the resultant solution was measured for its two-photon absorption cross-sectional area according to the below-described evaluation method therefor.
The following compound (74) was dissolved in tetrahydrofuran, and the resultant solution was measured for its two-photon absorption cross-sectional area according to the below-described evaluation method therefor.
[drawing 68] [Method for Measuring Two-Photon Absorption Cross-Sectional Area]
FIG. 8 schematically illustrates a system of the method.
Measuring light source: femtosecond titanium sapphire laser
Repetition frequency: 80 MHz
Measuring method: Z scan method
Inner diameter of cuvette: 10 mm
Light power for measurement: about 500 mW
Collection diameter: 40 μm to 50 μm
A quartz cell filled with each sample solution was placed in a light path through which a focused laser beam was passed. Then, the cell was moved along the light path for Z-scan measurement.
The sample solution was measured for its transmittance, and the thus-obtained value and the following theoretical equation (I) were used to determine a nonlinear absorption coefficient of the sample. T=[ln(1+I0L0β)]/I0L0β (I)
where T denotes a transmittance (%), I0 denotes an excited light density [GW/cm^2], L0 denotes a sample cell length [cm], and β denotes a nonlinear absorption coefficient [cm/GW].
The thus-determined nonlinear absorption coefficient and the following equation (ii) were used to calculate a two-photon absorption cross-sectional area σ. Note that the unit of σ is GM (1 GM=1×10^−50 cm^4·s·photon^−1). σ=1,000×hvβ/[…] (ii)
where h denotes the Planck's constant [J·s], v denotes a frequency of an incident laser beam [s^−1], NA denotes the Avogadoro's number, and C denotes a concentration of a solution [mol/L].

Row | Compound | Two-photon absorption cross-sectional area
1 | CC1=C(C)c2nc1c(-c1ccc(C#N)cc1)c1[nH]c(c(C)c1C)c(-c1ccc(/C=C/c3ccc(N(c4ccccc4)c4ccc(C)cc4)cc3)cc1)c1nc(c(-c3ccc(C#N)cc3)c3[nH]c(c(C)c3C)c2-c2ccc(/C=C/c3ccc(N(c4ccccc4)c4ccc(C)cc4)cc3)cc2)C(C)=C1C [(5)] | 980 GM
2 | CN(C)c1ccc(/C=C/C2=c3ccc4[n]3[Zn][n]3c(ccc3C(c3ccccn3)=C3C=CC2=N3)C(c2ccc(/C=C/c3ccc(N(c5ccccc5)c5ccccc5)cc3)cc2)=C2C=CC(=N2)C=4c2ccccn2)cc1 [(13)] | 1,030 GM
3 | CCCCCCc1ccc(N(c2ccc(-c3c4nc(c(-c5c(C)cc(C)cc5C)c5[nH]c(cc6nc(c(-c7c(C)cc(C)cc7C)c7[nH]c3c(CC)c7C)C(C)=C6CC)c(CC)c5C)C(C)=C4CC)cc2)c2ccc(-c3c4nc(c(-c5c(C)cc(C)cc5C)c5[nH]c(cc6nc(c(-c7c(C)cc(C)cc7C)c7[nH]c3c(CC)c7C)C(C)=C6CC)c(CC)c5C)C(C)=C4CC)cc2)cc1 [(25)] | 860 GM
4 | CCCCCCc1ccc(N(c2ccc(C3=C4N=C(C(C)=C4CC)C(c4c(C)cc(C)cc4C)=c4c(C)c(CC)c5[n]4[Zn][n]4c(c(C)c(CC)c43)C(c3c(C)cc(C)cc3C)=C3N=C(C=5)C(CC)=C3C)cc2)c2ccc(C3=c4c(CC)c(C)c5[n]4[Zn][n]4c(c(CC)c(C)c4C(c4c(C)cc(C)cc4C)=C4N=C3C(CC)=C4C)C=C3N=C(C(C)=C3CC)C=5c3c(C)cc(C)cc3C)cc2)cc1 [(26)] | 1,120 GM
5 | CCC1=C(CC)c2nc1c(Br)c1[nH]c(c(CC)c1CC)c(-c1ccc([N+](=O)[O-])cc1)c1nc(c(-c3ccc4c(c3)C(C)(C)c3cc(-c5c6nc(c(-c7ccc([N+](=O)[O-])cc7)c7[nH]c(c(Br)c8nc(c(-c9ccc([N+](=O)[O-])cc9)c9[nH]c5c(CC)c9CC)C(CC)=C8CC)c(CC)c7CC)C(CC)=C6CC)ccc3-4)c3[nH]c(c(CC)c3CC)c2-c2ccc([N+](=O)[O-])cc2)C(CC)=C1CC [(27)] | 810 GM
6 | CCCCCCc1ccc(N(c2ccc(C3=C4C=CC(=N4)C(c4ccccc4C)=c4ccc5[n]4[Pd][n]4c3ccc4C(c3ccccc3C)=C3C=CC(=N3)C=5c3ccc(/C=C/c4ccc(N(c5ccccc5)c5ccccc5)cc4)cc3)cc2)c2ccc(C3=c4ccc5[n]4[Pd][n]4c(ccc4C(c4ccccc4C)=C4C=CC3=N4)C=C3C=CC(=N3)C=5c3ccccc3C)cc2)cc1 [(31)] | 890 GM
7 | CCC1=C(C)C2=NC1=Cc1c(CC)c(C)c3[n]1[Ni][n]1c(c(C)c(CC)c1=C(c1ccc(N(c4ccccc4)c4ccc(C5=C6N=C(C(C)=C6CC)C(c6ccncc6)=c6c(C)c(CC)c7[n]6[Ni][n]6c(c(C)c(CC)c65)C(c5ccncc5)=C5N=C(C(CC)=C5C)C=7/C=C/c5ccc(N(c6ccccc6)c6ccccc6)cc5)cc4)cc1)C1=NC(=C3c3ccncc3)C(C)=C1CC)=C2c1ccncc1 [(32)] | 900 GM
8 | CCCCC(CC)COc1ccc(N(c2ccc(C3=C4N=C(C(C)=C4CC)C(c4ccccc4C(=O)OC)=c4c(C)c(CC)c5[n]4[Zn][n]4c(c(C)c(CC)c43)C(c3ccccc3C(=O)OC)=C3N=C(C=5)C(CC)=C3C)cc2)c2ccc(C3=c4c(CC)c(C)c5[n]4[Zn][n]4c(c(CC)c(C)c4C(c4ccccc4C(=O)OC)=C4N=C3C(CC)=C4C)C=C3N=C(C(C)=C3CC)C=5c3ccccc3C(=O)OC)cc2)cc1 (stereo not shown) [(34)] | 1,010 GM
9 | CCCCCCc1ccc(N(c2ccc(C3=C4C(C(=O)OC)=CC5=[N+]4[Co@]46[n]7c(cc(C(=O)OC)c73)C(c3ccc([N+](=O)[O-])cc3)=C3C=C(C(=O)OC)C(=[N+]34)C=c3c(C(=O)OC)cc([n]36)=C5c3ccc([N+](=O)[O-])cc3)cc2)c2ccc(C3=c4c(C(=O)OC)cc5[n]4[Co@]46[n]7c(cc(C(=O)OC)c7C=C7C(C(=O)OC)=CC(=[N+]74)C=5c4ccc([N+](=O)[O-])cc4)C(c4ccc([N+](=O)[O-])cc4)=C4C=C(C(=O)OC)C3=[N+]46)cc2)cc1 [(36)] | 860 GM
10 | CCC1=C(C)c2nc1cc1[nH]c(c(C)c1CC)c(-c1ccccc1C(F)(F)F)c1nc(c(-c3ccc4c(c3)C(C)(C)c3cc(-c5c6nc(c(-c7ccccc7C(F)(F)F)c7[nH]c(cc8nc(c(-c9ccccc9C(F)(F)F)c9[nH]c5c(CC)c9C)C(C)=C8CC)c(CC)c7C)C(C)=C6CC)ccc3-4)c3[nH]c(c(C)c3CC)c2-c2ccccc2C(F)(F)F)C(CC)=C1C [(39)] | 890 GM
11 | CC1=C(C)C2=C(I)c3c(C)c(C)c4[n]3[Zn][n]3c(cc(C)c3=C(c3ccccc3C(F)(F)F)C1=N2)=C(c1ccc2c(c1)C(C)(C)c1cc(C3=C5N=C(C(C)=C5C)C(c5ccccc5C(F)(F)F)=c5c(C)c(C)c6[n]5[Zn][n]5c3c(C)c(C)c5C(c3ccccc3C(F)(F)F)=C3N=C(C(C)=C3C)C=6I)ccc1-2)C1=NC(=C4c2ccccc2C(F)(F)F)C(C)=C1C [(44)] | 1,000 GM
12 | CCCCCCC1(CCCCCC)c2cc(C3=C4C=CC(=N4)C(c4cc(OC)c(OC)c(OC)c4)=c4ccc5[n]4[Zn][n]4c(ccc43)C(c3cc(OC)c(OC)c(OC)c3)=C3C=CC(=N3)C=5/C=C/c3ccc(N(c4ccccc4)c4ccccc4)cc3)ccc2-c2ccc(C3=c4ccc5[n]4[Zn][n]4c(ccc4C(c4cc(OC)c(OC)c(OC)c4)=C4C=CC3=N4)C=C3C=CC(=N3)C=5c3cc(OC)c(OC)c(OC)c3)cc21 [(45)] | 1,200 GM
13 | CCC1=C(C)c2nc1c(Br)c1[nH]c(c(C)c1CC)c(Br)c1nc(c(-c3ccc(N(c4ccccc4)c4ccc(-c5c6nc(c(-c7ccccc7C(F)(F)F)c7[nH]c(c(Br)c8nc(c(Br)c9[nH]c5c(CC)c9C)C(C)=C8CC)c(CC)c7C)C(C)=C6CC)cc4)cc3)c3[nH]c(c(C)c3CC)c2-c2ccccc2C(F)(F)F)C(CC)=C1C [(53)] | 840 GM
14 | CCC1=C(C)c2cc3[nH]c(c(CC)c3C)c(-c3ccc(N(c4ccccc4)c4ccc(-c5c6nc(cc7[nH]c(cc8nc(c(-c9ccc(-c%10ccccn%10)nc9)c9[nH]c5c(CC)c9C)C(C)=C8CC)c(CC)c7C)C(C)=C6CC)cc4)cc3)c3nc(c(-c4ccc(-c5ccccn5)nc4)c4[nH]c(cc1n2)c(CC)c4C)C(C)=C3CC [(55)] | 850 GM
15 | CCC1=C(C)C2=C(c3cc(OC)c(OC)c(OC)c3)c3c(C)c(CC)c4[n]3[Cu][n]3c(c(C)c(CC)c3=C(c3ccc(/C=C/c5ccc(N(c6ccc(C)cc6)c6ccc(C)cc6)cc5)cc3)C1=N2)=C(c1cc(OC)c(OC)c(OC)c1)C1=NC(=C4c2ccc(/C=C/c3ccc(N(c4ccc(C)cc4)c4ccc(C)cc4)cc3)cc2)C(CC)=C1C [(62)] | 840 GM
16 | CCCCCCc1ccc(N(c2ccc(C3=C4N=C(C(C)=C4CC)C(c4c(C)cc(C)cc4C)=c4c(C)c(CC)c5[n]4[Ni][n]4c(c(C)c(CC)c43)C(c3c(C)cc(C)cc3C)=C3N=C(C=5)C(CC)=C3C)cc2)c2ccc(C3=c4c(CC)c(C)c5[n]4[Ni][n]4c(c(CC)c(C)c4C(c4c(C)cc(C)cc4C)=C4N=C3C(CC)=C4C)C=C3N=C(C(C)=C3CC)C=5c3c(C)cc(C)cc3C)cc2)cc1 [(63)] | 900 GM
17 | CCCCCCc1ccc(N(c2ccc(C3=C4N=C(C(C)=C4CC)C(c4c(C)cc(C)cc4C)=c4c(C)c(CC)c5[n]4[Pd][n]4c(c(C)c(CC)c43)C(c3c(C)cc(C)cc3C)=C3N=C(C=5)C(CC)=C3C)cc2)c2ccc(C3=c4c(CC)c(C)c5[n]4[Pd][n]4c(c(CC)c(C)c4C(c4c(C)cc(C)cc4C)=C4N=C3C(CC)=C4C)C=C3N=C(C(C)=C3CC)C=5c3c(C)cc(C)cc3C)cc2)cc1 [(64)] | 890 GM
18 | CCCCCCc1ccc(N(c2ccc(C3=C4N=C(C(C)=C4CC)C(c4c(C)cc(C)cc4C)=c4c(C)c(CC)c5[n]4[Co][n]4c(c(C)c(CC)c43)C(c3c(C)cc(C)cc3C)=C3N=C(C=5)C(CC)=C3C)cc2)c2ccc(C3=c4c(CC)c(C)c5[n]4[Co][n]4c(c(CC)c(C)c4C(c4c(C)cc(C)cc4C)=C4N=C3C(CC)=C4C)C=C3N=C(C(C)=C3CC)C=5c3c(C)cc(C)cc3C)cc2)cc1 [(65)] | 810 GM
19 | CCCCCCc1ccc(N(c2ccc(C3=C4N=C(C(C)=C4CC)C(c4c(C)cc(C)cc4C)=c4c(C)c(CC)c5[n]4[Cu][n]4c(c(C)c(CC)c43)C(c3c(C)cc(C)cc3C)=C3N=C(C=5)C(CC)=C3C)cc2)c2ccc(C3=c4c(CC)c(C)c5[n]4[Cu][n]4c(c(CC)c(C)c4C(c4c(C)cc(C)cc4C)=C4N=C3C(CC)=C4C)C=C3N=C(C(C)=C3CC)C=5c3c(C)cc(C)cc3C)cc2)cc1 [(66)] | 820 GM
